Data from publication PMC2263054, “Functional evolution of the vitamin D and pregnane X receptors” (BMC Evolutionary Biology, 2007).
Like-named read-outs stand apart in the source and are kept apart here.

Assays:
Human VDR = molecular target: T1, Human VDR (Homo sapiens, UniProt P11473); experiment: luciferase reporter transactivation assay in HepG2-NTCP cells, full-length hVDR with CYP3A4-PXRE-Luc
T1 sequence (P11473 1-427): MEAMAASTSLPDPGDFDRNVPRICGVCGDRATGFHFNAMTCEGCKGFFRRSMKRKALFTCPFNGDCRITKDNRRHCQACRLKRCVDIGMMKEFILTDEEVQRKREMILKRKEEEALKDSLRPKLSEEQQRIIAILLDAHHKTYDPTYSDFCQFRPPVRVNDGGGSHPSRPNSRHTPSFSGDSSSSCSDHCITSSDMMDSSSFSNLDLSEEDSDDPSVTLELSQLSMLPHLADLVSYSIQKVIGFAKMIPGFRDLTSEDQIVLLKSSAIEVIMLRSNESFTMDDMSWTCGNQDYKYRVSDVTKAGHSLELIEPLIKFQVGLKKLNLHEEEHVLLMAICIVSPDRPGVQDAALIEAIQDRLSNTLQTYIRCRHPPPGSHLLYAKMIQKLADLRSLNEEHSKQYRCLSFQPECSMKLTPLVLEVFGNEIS

Xenopus laevis VDR = molecular target: T2, Xenopus laevis VDR (Xenopus laevis, UniProt O13124); experiment: luciferase reporter transactivation assay in HepG2-NTCP cells, GAL4/xlVDR LBD chimera with tk-UAS-Luc; assay type: cell-based; conditions: for EC50 / Xenopus VDR EC50 ± SD: HepG2-NTCP cells, luciferase reporter; for EC50: read-out: Xenopus VDR EC50 ± SD; for Effect on Xenopus laevis VDR: screening for activators, at least three concentrations of each drug; for Xenopus VDR EC50 ± SD: unit not given, also cells saying No effect
T2 sequence (O13124 90-422): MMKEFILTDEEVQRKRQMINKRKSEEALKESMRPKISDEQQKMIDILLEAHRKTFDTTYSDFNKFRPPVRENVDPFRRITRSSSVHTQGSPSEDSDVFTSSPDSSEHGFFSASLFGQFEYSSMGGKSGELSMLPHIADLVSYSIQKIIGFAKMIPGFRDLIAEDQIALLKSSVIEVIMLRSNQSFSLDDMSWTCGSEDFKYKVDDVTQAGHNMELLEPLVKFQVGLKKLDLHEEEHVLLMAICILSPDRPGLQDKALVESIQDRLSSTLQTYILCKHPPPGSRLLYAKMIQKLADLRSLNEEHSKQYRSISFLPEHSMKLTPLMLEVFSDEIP

Mouse VDR = molecular target: T3, Mouse VDR (Mus musculus, UniProt P48281); experiment: luciferase reporter transactivation assay in HepG2-NTCP cells, full-length mVDR with CYP3A4-PXRE-Luc
T3 sequence (P48281 1-422): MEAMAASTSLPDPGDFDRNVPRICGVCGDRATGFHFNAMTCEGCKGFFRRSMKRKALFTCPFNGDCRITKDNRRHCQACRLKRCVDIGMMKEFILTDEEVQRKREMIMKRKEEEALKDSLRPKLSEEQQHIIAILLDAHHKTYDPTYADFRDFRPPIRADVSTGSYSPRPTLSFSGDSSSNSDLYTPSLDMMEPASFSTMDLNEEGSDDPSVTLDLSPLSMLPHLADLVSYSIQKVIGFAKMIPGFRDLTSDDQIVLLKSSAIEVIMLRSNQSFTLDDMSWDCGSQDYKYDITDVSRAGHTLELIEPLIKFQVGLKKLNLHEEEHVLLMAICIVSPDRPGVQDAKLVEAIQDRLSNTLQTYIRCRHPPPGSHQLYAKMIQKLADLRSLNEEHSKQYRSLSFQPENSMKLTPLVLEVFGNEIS

Zebrafish VDR = molecular target: T4, Zebrafish VDR (Danio rerio, UniProt Q9PTN2); experiment: luciferase reporter transactivation assay in HepG2-NTCP cells, GAL4/zfVDR LBD chimera with tk-UAS-Luc; assay type: cell-based; conditions: for EC50 / Zebrafish VDR EC50 ± SD: HepG2-NTCP cells, luciferase reporter; for EC50: read-out: Zebrafish VDR EC50 ± SD; for Effect on zebrafish VDR: screening for activators, at least three concentrations of each drug; for Zebrafish VDR EC50 ± SD: unit not given, also cells saying No effect
T4 sequence (Q9PTN2 121-453): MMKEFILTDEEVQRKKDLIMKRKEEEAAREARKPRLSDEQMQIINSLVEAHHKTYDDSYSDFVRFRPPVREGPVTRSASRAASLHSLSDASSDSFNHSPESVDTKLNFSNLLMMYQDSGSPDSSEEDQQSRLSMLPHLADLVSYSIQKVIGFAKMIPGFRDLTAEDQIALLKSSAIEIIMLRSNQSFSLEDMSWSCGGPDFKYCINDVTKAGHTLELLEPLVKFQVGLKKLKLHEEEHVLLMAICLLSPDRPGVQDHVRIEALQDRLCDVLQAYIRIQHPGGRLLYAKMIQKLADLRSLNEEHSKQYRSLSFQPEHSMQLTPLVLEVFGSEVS

[1] = system: ethoxyresorufin O-deethylase (EROD) activity (CYP1A-like activity); experiment: EROD assay in zebrafish primary hepatocytes; conditions: zebrafish primary hepatocytes; DIM at concentrations of 2 μM and greater
Method: The cells are cultured at 26°C in ambient atmosphere.

Sea lamprey VDR = molecular target: T5, Sea lamprey VDR (Petromyzon marinus, UniProt Q7ZZY9); assay type: cell-based; conditions: for Effect on sea lamprey VDR: screening for activators, at least three concentrations of each drug; for Sea lamprey VDR EC50 ± SD: HepG2-NTCP cells, luciferase reporter, unit not given, also cells saying No effect
T5 sequence (Q7ZZY9 92-406): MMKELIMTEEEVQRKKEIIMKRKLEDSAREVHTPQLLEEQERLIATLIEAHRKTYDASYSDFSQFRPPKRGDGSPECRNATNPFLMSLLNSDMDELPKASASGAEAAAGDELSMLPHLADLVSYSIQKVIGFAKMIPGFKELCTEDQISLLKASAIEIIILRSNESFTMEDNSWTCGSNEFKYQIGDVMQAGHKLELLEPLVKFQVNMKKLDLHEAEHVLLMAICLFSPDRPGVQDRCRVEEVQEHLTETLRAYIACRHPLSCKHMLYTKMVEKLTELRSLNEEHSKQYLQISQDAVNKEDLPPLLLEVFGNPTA

[2] = system: testosterone 6β-hydroxylation; experiment: testosterone hydroxylation (HPLC) in sea lamprey primary hepatocytes; assay type: cell-based; conditions: concentration ranges per compound
Method: 100 μL of sample, calibration standard, or quality material standard were pipetted into separate microcentrifuge tubes and mixed with 100 μL of methanol. Samples were vortexed and centrifuged at 13,000 rpm for 4 min. The supernatant was then injected into the HPLC.
The flow rate was 1.2 mL/min and total run time was 25 min.

EROD activity = experiment: EROD assay in sea lamprey primary hepatocytes; conditions: 24–48 hr exposure
[3] = HepG2-NTCP cells, luciferase reporter, unit not given, also cells saying No effect

Work on C=C1/C(=C\C=C2/CCC[C@]3(C)[C@@H]([C@H](C)/C=C/[C@H](C)C(C)C)CC[C@@H]23)C[C@@H](O)C[C@@H]1O [1α-Hydroxyvitamin D2] yielded an EC50 (Human VDR) of 13 ± 1.2 nM, an EC50 (Xenopus laevis VDR) of 624 ± 49 nM and an EC50 (Mouse VDR) of 0.8 ± 0.1 nM. For the same molecule, the EC50 (Zebrafish VDR) was 26 ± 1.7 nM.
C=C1/C(=C\C=C2/CCC[C@]3(C)[C@@H]([C@H](C)CCCC(C)C)CC[C@@H]23)C[C@@H](O)C[C@@H]1O [1α-Hydroxyvitamin D3] showed an EC50 (Human VDR) of 4.3 ± 0.5 nM, an EC50 (Xenopus laevis VDR) of 157 ± 10 nM and an EC50 (Mouse VDR) of 0.3 ± 0.04 nM. It also gave an EC50 (Zebrafish VDR) of 18 ± 1.4 nM.
With c1ccc2c(Cc3c[nH]c4ccccc34)c[nH]c2c1 [3,3'-diindoylmethane] the “effect on EROD activity” value [1] was “caused a decrease in EROD activity”, the “Effect on Xenopus laevis VDR” value (Xenopus laevis VDR) was “No effect” and the “Effect on sea lamprey VDR” value (Sea lamprey VDR) was “No effect”. For the same molecule, the “Effect on zebrafish VDR” value (Zebrafish VDR) was “No effect”.
C[C@H](CCC(=O)O)[C@H]1CC[C@H]2[C@@H]3CC[C@@H]4CC(=O)CC[C@]4(C)[C@H]3CC[C@]12C [3-Ketolithocholic acid] was tested, and the “Ciona VDR/PXR EC50 ± SD” value (Ciona VDR/PXR) was “No effect”, the “Human VDR EC50 ± SD” value (Human VDR) was 55 ± 8.1 (0.17) and the “Xenopus VDR EC50 ± SD” value (Xenopus laevis VDR) was “No effect”. The “Effect on Xenopus laevis VDR” value (Xenopus laevis VDR) was “No effect”, the “Mouse VDR EC50 ± SD” value (Mouse VDR) was 20 ± 0.3 (0.58) and the “Sea lamprey VDR EC50 ± SD” value (Sea lamprey VDR) was “No effect”. The “Effect on sea lamprey VDR” value (Sea lamprey VDR) was “No effect”, the “Zebrafish VDR EC50 ± SD” value (Zebrafish VDR) was “No effect” and the “Effect on zebrafish VDR” value (Zebrafish VDR) was “No effect”.
With C[C@H](CCCO)[C@H]1CC[C@H]2[C@@H]3[C@H](O)C[C@H]4CC(=O)CC[C@]4(C)[C@H]3C[C@H](O)[C@]12C [3-keto-5α-petromyzonol] the “effect on testosterone 6β-hydroxylation” value [2] was “None of these compounds produced significant increases in testosterone 6β-hydroxylation”.
For CC(CCCOS(=O)(=O)O)[C@H]1CCC2C3C(C[C@H](O)[C@@]21C)[C@@]1(C)CC[C@@H](O)C[C@@H]1C[C@H]3O (stereo partly drawn) [5α-Petromyzonol 24-sulfate], the “effect on testosterone 6β-hydroxylation” value [2] was “None of these compounds produced significant increases in testosterone 6β-hydroxylation”, the “Ciona VDR/PXR EC50 ± SD” value (Ciona VDR/PXR; [3]) was “No effect” and the “effect on EROD activity” value (EROD activity) was “did not alter EROD activity”. The “Human VDR EC50 ± SD” value (Human VDR; [3]) was “No effect”, the “Xenopus VDR EC50 ± SD” value (Xenopus laevis VDR) was “No effect” and the “Mouse VDR EC50 ± SD” value (Mouse VDR; [3]) was “No effect”. The “Sea lamprey VDR EC50 ± SD” value (Sea lamprey VDR) was “No effect” and the “Zebrafish VDR EC50 ± SD” value (Zebrafish VDR) was “No effect”.
With C[C@]12CC[C@@H](O)C[C@@H]1CC[C@@H]1[C@@H]2CC[C@]2(C)C=CC[C@@H]12 [5α-androst-16-en-3α-ol] the “effect on testosterone 6β-hydroxylation” value [2] was “None of these compounds produced significant increases in testosterone 6β-hydroxylation”, the “Effect on Xenopus laevis VDR” value (Xenopus laevis VDR) was “No effect” and the “Effect on sea lamprey VDR” value (Sea lamprey VDR) was “No effect”. The “Effect on zebrafish VDR” value (Zebrafish VDR) was “No effect”.
